US8709398B2, “Probiotic Bifidobacterium strains” (Alimentary Health Limited, priority 2007, dated 2014)

Tested on: B. longum AH1205
Test: Antibiotic sensitivity, minimum inhibitory concentration (MIC)
Type: cell-based, Bifidobacterium longum
Conditions: against B. longum AH1205

| SMILES | minimum inhibitory concentration (MIC) |
| --- | --- |
| CCC[C@@H]1C[C@@H](C(=O)N[C@@H]([C@H]2O[C@H](SC)[C@H](O)[C@@H](O)[C@H]2O)[C@H](C)Cl)N(C)C1 [clindamycin] | 0.032 |
| Cc1ncc([N+](=O)[O-])n1CCO [metronidazole] | > 256 |
| CN[C@H](CC(C)C)C(=O)N[C@H]1C(=O)N[C@@H](CC(N)=O)C(=O)N[C@H]2C(=O)N[C@H]3C(=O)N[C@H](C(=O)N[C@H](C(=O)O)c4cc(O)cc(O)c4-c4cc3ccc4O)[C@H](O)c3ccc(c(Cl)c3)Oc3cc2cc(c3O[C@@H]2O[C@H](CO)[C@@H](O)[C@H](O)[C@H]2O[C@H]2C[C@](C)(N)[C@H](O)[C@H](C)O2)Oc2ccc(cc2Cl)[C@H]1O [vancomycin] | 0.75 |
